{
  "source": "patent US10004225B2",
  "about": "“Wearable insect repelling patch” (S. C. Johnson & Son, Inc., priority 2005, dated 2018)",
  "key": {"[1]": {"test_system": "mosquitoes", "assay": "Three-chamber test apparatus, mosquito personal area repellency of hung patches with human test subject as attractant", "type": "in vivo", "conditions": "for personal area control (result in words): no adhesive layer", "description": "Various patch sizes and insect repellents were tested, initially using the test apparatus shown schematically generally at 20 in FIG. 3. The test apparatus 20 has a sample chamber 22, connected to a mosquito chamber 24, which is connected via an opening 34 to a remote chamber 26. Each chamber is generally cubical, with a volume of about 0.43 m^3.\nThe sample chamber 22 has an open end 28 on the side remote from the mosquito chamber 24. A screen 30 divides the sample chamber 22 from the mosquito chamber 24. The opening 34 between the mosquito chamber 24 and the remote chamber 26 is slightly constricted by side walls 32. However, the opening 34 is still sufficiently large that mosquitoes can freely move between the mosquito and remote chambers 24 and 26.\nFour, screened, low-flow exhaust ports 36 are located in the side walls 32, the exhaust ports facing the open end 28. Air is drawn through the exhaust ports 36 and exhausted from the mosquito chamber 24 at a rate sufficient to draw air in through the open end 28 but insufficient to affect the flying of mosquitoes placed in the mosquito chamber 24 or to disturb the air in the remote chamber 26.\nFor each test, a human test subject 38 is placed at the open end 28 of the sample chamber 22, the test subject's breath providing the warmth, CO2, and moisture known to be human attractants for mosquitoes. The exhaust ports 36 pull air, along with those attractants, though the open end 28 and on through the sample chamber 22, the screen 30, and the mosquito chamber 24. The attractants thus leave the apparatus 20 without entering the remote chamber 26.\nMosquitoes are placed in the mosquito chamber 24 and are quickly attracted to the screen 30 by the human attractants. The open end 28 is large enough to expose primarily the upper torso and head of the test subject. Two patches 10 are hung one foot into the sample chamber 22 and approximately 20 cm down from the chamber's top (except as was done otherwise in particular experiments, as is noted, below).\nPercent repellency was calculated as the percent of mosquitoes that had been initially introduced into the mosquito chamber 24 (most of which were attracted to the screen 30 before the patches 10 were put in place), that then were repelled from the screen when the patches were introduced. The “repellency” indicated in the table, below, for time zero reflects the mosquitoes that were not yet attracted to the screen 30 by the time the test patches 10 were introduced. […] The patches 10 used were 103 cm^2 in size, with no adhesive layer 18.\nThe patch material was a non-woven cloth material comprised of rayon, polyester, and polypropylene (as described in published U.S. Patent Application US20040082248), dosed with 60 mg of the active ingredient. The controls used no patches.\nThe same test apparatus 20 was used in the same way as described in Example 1, with the following changes. When a test included four patches 10, two were hung as in Example 1, and two were hung about 13 cm from the bottom of the chamber to simulate patches worn on the shoulders and at the waist of a user. In one test, as indicated in the table, below, the patches 10 were attached to the test subject's chest. Each individual patch was treated with the amount of insect repellent indicated. Time is shown in minutes."}, "[2]": {"conditions": "cited from earlier work"}, "[3]": {"conditions": "Example 1, 2 patches 103 cm^2, 60 mg each"}, "[4]": {"conditions": "Example 1, 2 patches 103 cm^2, 60 mg each, no adhesive, 5 min"}, "[5]": {"conditions": "Example 1, 2 patches 103 cm^2, 60 mg each, no adhesive, 10 min"}, "[6]": {"conditions": "Example 1, 2 patches 103 cm^2, 60 mg each, no adhesive, 15 min"}, "[7]": {"conditions": "Example 1, 2 patches 103 cm^2, 60 mg each, no adhesive, 20 min"}, "[8]": {"conditions": "Example 1, 2 patches 103 cm^2, 60 mg each, no adhesive, time 0 min (mosquitoes not yet attracted to screen)"}},
  "note": "Like-named read-outs stand apart in the source and are kept apart here.",
  "data": [
    {"smiles": "COP(=O)(OC)OC=C(Cl)Cl", "note": "[DDVP, 2,2-dichlorovinyl dimethyl phosphate]", "values": [
      {"measurement": "% Repellency", "setting": "[1]; Example 2, 4 patches 103 cm^2, 60 mg each, 0 min", "result": 5},
      {"measurement": "% Repellency", "setting": "[1]; Example 2, 4 patches 103 cm^2, 60 mg each, 5 min", "result": 11},
      {"measurement": "% Repellency", "setting": "[1]; Example 2, 4 patches 103 cm^2, 60 mg each, 10 min", "result": 47},
      {"measurement": "% Repellency", "setting": "[1]; Example 2, 4 patches 103 cm^2, 60 mg each, 15 min", "result": 95},
      {"measurement": "% Repellency", "setting": "[1]; Example 2, 4 patches 103 cm^2, 60 mg each, 20 min", "result": 95},
      {"measurement": "personal area control (result in words)", "setting": "[1]; Example 2, 4 patches, each 103 cm^2 in gross area", "result": "successful personal area control"},
      {"measurement": "Vapor pressure", "setting": "[2]; @ 20° C.", "result": "1.2 × 10^−5 mmHg @"}
    ]},
    {"smiles": "CC1(C)[C@H](C=C(Cl)Cl)[C@H]1C(=O)OCc1c(F)c(F)cc(F)c1F", "note": "[transfluthrin, (1R-trans)-(2,3,5,6-tetrafluorophenyl)-methyl-3-(2,2-dichloroethenyl)-2,2-dimethylcyclopropanecarboxylate]", "values": [
      {"measurement": "personal area repellency (result in words)", "setting": "[1]; [3]", "result": "successful personal area repellency"},
      {"measurement": "% Repellency", "setting": "[1]; [4]", "result": 54, "unit": "%"},
      {"measurement": "% Repellency", "setting": "[1]; [5]", "result": 75, "unit": "%"},
      {"measurement": "% Repellency", "setting": "[1]; [6]", "result": 90, "unit": "%"},
      {"measurement": "% Repellency", "setting": "[1]; [7]", "result": 92, "unit": "%"},
      {"measurement": "% Repellency", "setting": "[1]; [8]", "result": 13, "unit": "%"},
      {"measurement": "% Repellency", "setting": "[1]; Example 2, 2 patches 25.8 cm^2, 30 mg each, 0 min", "result": 13},
      {"measurement": "% Repellency", "setting": "[1]; Example 2, 2 patches 25.8 cm^2, 30 mg each, 5 min", "result": 41},
      {"measurement": "% Repellency", "setting": "[1]; Example 2, 2 patches 25.8 cm^2, 30 mg each, 10 min", "result": 68},
      {"measurement": "% Repellency", "setting": "[1]; Example 2, 2 patches 25.8 cm^2, 30 mg each, 15 min", "result": 74},
      {"measurement": "% Repellency", "setting": "[1]; Example 2, 2 patches 25.8 cm^2, 30 mg each, 20 min", "result": 79},
      {"measurement": "% Repellency", "setting": "[1]; Example 2, 2 patches 103.22 cm^2 taped to test subject's chest, 60 mg each, 0 min", "result": 19},
      {"measurement": "% Repellency", "setting": "[1]; Example 2, 2 patches 103.22 cm^2 taped to test subject's chest, 60 mg each, 5 min", "result": 33},
      {"measurement": "% Repellency", "setting": "[1]; Example 2, 2 patches 103.22 cm^2 taped to test subject's chest, 60 mg each, 10 min", "result": 44},
      {"measurement": "% Repellency", "setting": "[1]; Example 2, 2 patches 103.22 cm^2 taped to test subject's chest, 60 mg each, 15 min", "result": 52},
      {"measurement": "% Repellency", "setting": "[1]; Example 2, 2 patches 103.22 cm^2 taped to test subject's chest, 60 mg each, 20 min", "result": 81},
      {"measurement": "% Repellency", "setting": "[1]; Example 2, 4 patches 6.45 cm^2, 120 mg each, 0 min", "result": 11},
      {"measurement": "% Repellency", "setting": "[1]; Example 2, 4 patches 6.45 cm^2, 120 mg each, 5 min", "result": 21},
      {"measurement": "% Repellency", "setting": "[1]; Example 2, 4 patches 6.45 cm^2, 120 mg each, 10 min", "result": 32},
      {"measurement": "% Repellency", "setting": "[1]; Example 2, 4 patches 6.45 cm^2, 120 mg each, 15 min", "result": 42},
      {"measurement": "% Repellency", "setting": "[1]; Example 2, 4 patches 6.45 cm^2, 120 mg each, 20 min", "result": 47},
      {"measurement": "% Repellency", "setting": "[1]; Example 2, 4 patches* 6.45 cm^2, 60 mg each, 4th patch added 10 minutes into test, 0 min", "result": 5},
      {"measurement": "% Repellency", "setting": "[1]; Example 2, 4 patches* 6.45 cm^2, 60 mg each, 4th patch added 10 minutes into test, 5 min", "result": 26},
      {"measurement": "% Repellency", "setting": "[1]; Example 2, 4 patches* 6.45 cm^2, 60 mg each, 4th patch added 10 minutes into test, 10 min", "result": 47},
      {"measurement": "% Repellency", "setting": "[1]; Example 2, 4 patches* 6.45 cm^2, 60 mg each, 4th patch added 10 minutes into test, 15 min", "result": 47},
      {"measurement": "% Repellency", "setting": "[1]; Example 2, 4 patches* 6.45 cm^2, 60 mg each, 4th patch added 10 minutes into test, 20 min", "result": 47},
      {"measurement": "personal area control (result in words)", "setting": "[1]; Example 2, total area of patches at least 51.6 cm^2 (2 patches, each 25.8 cm^2)", "result": "successful personal area control"},
      {"measurement": "Vapor pressure", "setting": "[2]; @ 20° C.", "result": "3.0 × 10^−6 mmHg @"}
    ]},
    {"smiles": "CC=C[C@@H]1[C@@H](C(=O)OCc2c(F)c(F)c(C)c(F)c2F)C1(C)C", "note": "(racemic) [profluthrin, 2,3,5,6-tetrafluoro-4-methylbenzyl (EZ)-(1RS,3RS)-2,2-dimethyl-3-(prop-1-enyl)-cyclopropanecarboxylate]", "values": [
      {"measurement": "personal area repellency (result in words)", "setting": "[1]; [3]", "result": "successful personal area repellency"},
      {"measurement": "% Repellency", "setting": "[1]; [4]", "result": 55, "unit": "%"},
      {"measurement": "% Repellency", "setting": "[1]; [5]", "result": 67, "unit": "%"},
      {"measurement": "% Repellency", "setting": "[1]; [6]", "result": 91, "unit": "%"},
      {"measurement": "% Repellency", "setting": "[1]; [7]", "result": 93, "unit": "%"},
      {"measurement": "% Repellency", "setting": "[1]; [8]", "result": 6, "unit": "%"},
      {"measurement": "Vapor pressure", "setting": "[2]; @ 25° C.", "result": "7.73 × 10^−5 mmHg @"}
    ]},
    {"smiles": "C#C[C@@H](OC(=O)[C@@H]1[C@@H](C=C(C)C)C1(C)C)C(C)=CCC", "note": "(racemic) [emphenthrin, (RS)-1-ethynyl-2-methyl-2-pentenyl-(1RS,3RS)-2,2-dimethyl-3-(2-methylpropenyl)-cyclopropanecarboxylate]", "values": [
      {"measurement": "% Repellency", "setting": "[1]; Example 2, 2 patches 103 cm^2, 60 mg each, 0 min", "result": 17},
      {"measurement": "% Repellency", "setting": "[1]; Example 2, 2 patches 103 cm^2, 60 mg each, 5 min", "result": 33},
      {"measurement": "% Repellency", "setting": "[1]; Example 2, 2 patches 103 cm^2, 60 mg each, 10 min", "result": 29},
      {"measurement": "% Repellency", "setting": "[1]; Example 2, 2 patches 103 cm^2, 60 mg each, 15 min", "result": 29},
      {"measurement": "practical mosquito personal area repellency (result in words)", "setting": "[1]; Example 2, 2 patches 103 cm^2, 60 mg each, within 20 minutes", "result": "proved not to be an insect repellent capable of providing practical mosquito personal area repellency within 20 minutes"}
    ]}
  ]
}
